Assay results as given in patent EP1826280A2 (priority 1992, dated 1994).

System: vascular smooth muscle cells
Assay: 24 hour 3H-leucine protein inhibition and 3H-thymidine DNA synthesis inhibition assays
Type: cell-based
Settings: 24 hour exposure; for inhibition of DNA synthesis compared with protein synthesis: in the presence of 5% FBS
Experimental: The ability of various therapeutic agents to inhibit DNA synthesis and protein synthesis in vascular smooth muscle cells was tested. ^3H-leucine and ^3H-thymidine uptake and cytotoxicity assays were conducted in accordance with the following protocols.
^3H-leucine uptake: Vascular smooth muscle cells at 40,000 cells/ml were seeded in sterile 24 well plates at 1ml/well. The plates were incubated overnight at 37°C, 5% CO2, 95% air in a humidified atmosphere (saturation). Log dilutions of the therapeutic agent of interest were incubated with the vascular smooth muscle cells for 5 minutes or 24 hours. Samples of the therapeutic agents were diluted in DMEM:F-12 media (Whittaker Bioproducts, Walkersville, Maryland) with 5% fetal bovine serum (GBS, Gibco) and 5% Serum Plus® (JRH Biologicals). Following therapeutic agent incubation, the solution was aspirated, and 1ml/well of 0.5 microcurie/ml ^3H-leucine in leucine free DMEM (Dulbecco's Modified Eagle's Medium) with 5% Serum Plus® was added. The plates were re-incubated overnight at 37°C, 5% CO2 in a humidified atmosphere. The cells were visually graded using an inverted microscope using a scoring scale to determine viability and cell number. The 1 to 3 grade is based upon percent of cell viability and number compared to control wells, with 3=100%, 2=70%-100% and 1=0%-70%. A record of this scoring assisted in determining the immediate cytotoxic effect of the therapeutic agents. The media was then aspirated, and the cells were washed twice with cold 5% TCA. 400 microliters of 0.2M KaOH was added per well, and the plates were incubated for two hours at room temperature on a rotating platform. 200 microliters per well of the cell solution was transferred into plastic scintillation vials (Bio-Rad Laboratories), and 4 milliliters of Bio-Safe® II liquid scintillation fluid was added prior to vortexing. Vials were counted on a Beckman LS2600 Liquid scintillation Counter interfaced with Beckman "Data Capture" software for conversion to a Lotus 1-2-3® file and analysis using Lotus 1-2-3®.
^3H-thymidine uptake: Vascular smooth muscle cells were incubated in complete media with 5% FBS (Gibco) overnight at 37°C in a humidified, 5% CO2 environment in sterile 24 well plates. The media was aspirated from the wells and serum free media supplemented with growth factors (DMEM: F-12 basal media supplemented with growth factor cocktail catalog number I1884 which contains insulin (5 micrograms/ml), transferrin (5 micrograms/ml) and sodium selenite (5 nanograms/ml) available from Sigma Chemical, St. Louis, Missouri) was added. Cells were incubated in this media for 24 hours. For a 5 minute therapeutic agent exposure, log dilutions of the therapeutic agent were incubated with the cells in complete media. After 5 minutes and media aspiration, 1 ml/well of 1.0 microcurie/ml ^3H-thymidine dispersed in complete media was added. The 24 hour exposure involved incubation of the cells with 1 ml/well of 1.0 microcurie/ml of ^3H-thymidine dispersed in complete media and log dilutions of the therapeutic agent being tested. In both exposure trials, the cells were then incubated overnight at 37°C in a humidified, 5% CO2 environment. The cells were visually scored for viability and cell number. […] Vials were counted on a Beckman LS2800 Liquid Scintillation counter interfaced with Beckman "Data Capture" software for conversion to a Lotus 1-2-3® file and analysis using Lotus 1-2-3®.

Row | Structure (SMILES) | therapeutic range (area under the curve of 3H-leucine assay greater than that of 3H-thymidine assay) | inhibition of DNA synthesis compared with protein synthesis
1 | O=[N+]([O-])OCC(CO[N+](=O)[O-])O[N+](=O)[O-] [nitroglycerin] | showed an available therapeutic range | to a greater extent than they inhibited protein synthesis
2 | CN[C@@H]1C[C@H]2O[C@@](C)([C@@H]1OC)n1c3ccccc3c3c4c(c5c6ccccc6n2c5c31)C(=O)NC4 [staurosporin] | showed an available therapeutic range | –
3 | Cc1ccc(C(=O)Nc2ccc(S(=O)(=O)O)c3cc(S(=O)(=O)O)cc(S(=O)(=O)O)c23)cc1NC(=O)c1cccc(NC(=O)Nc2cccc(C(=O)Nc3cc(C(=O)Nc4ccc(S(=O)(=O)O)c5cc(S(=O)(=O)O)cc(S(=O)(=O)O)c45)ccc3C)c2)c1 [suramin] | showed an available therapeutic range | to a greater extent than they inhibited protein synthesis
